Laboratory results taken from US4734420A, “Anti-hypertensive agents” (priority 1980, dated 1988).
Values belong to the compound of their own block, whether it stands above or below them.

What was measured:
ACE [1] = settings: oral, most patients; cited from earlier work
Human urinary ACE = Human urinary ACE (Homo sapiens, UniProt P12821); test: biochemical; settings: read-out: I50 value
Source text: The role of ACE in the pathogenesis of hypertension has prompted a search for inhibitors of the enzyme that could act as antihypertensive drugs. See for example U.S. Pat. Nos. 3,891,616, 3,947,575, 4,052,511 and 4,053,651. […]. No. 4,046,889 to Ondetti et al., issued Sept. 6, 1977, and in scientific articles by Cushman, D. W. et al., Biochemistry 16, 5484 (1977), and by Ondetti, M. et al., Science 196, 441 (1977). […]. These factors include the source of enzyme, its purity, the substrate used and its concentration, and the composition of the assay buffer. All I50 data reported herein have been performed with the same assay system and same enzyme (human urinary ACE) and with an approximately 1/2 Km level of substrate and are therefore internally consistent. Discrepancies with data obtained by other workers may be observed. Indeed such discrepancies do exist in the literature, for unknown reasons. See, for example, the I50 values for BPP9a reported by Cushman, D. W., et al., Experientia 29, 1032 (1973) and by Dorer, F. E., et al., Biochim. Biophys. Acta 429, 220 (1976).
The inhibitory potency of N^α -[3-(L-α-glutamylthio)-2-D-methyl-propanoyl]-L-proline in vitro was measured in the following assay. […] The enzyme was assayed in 0.05M Hepes buffer, pH 8.0 containing 0.1M NaCl and 0.75M Na2 SO4. […]

ACE [2] = settings: statement of belief; cited from earlier work

Sequence of Human urinary ACE (P12821 30-1232 limits assumed): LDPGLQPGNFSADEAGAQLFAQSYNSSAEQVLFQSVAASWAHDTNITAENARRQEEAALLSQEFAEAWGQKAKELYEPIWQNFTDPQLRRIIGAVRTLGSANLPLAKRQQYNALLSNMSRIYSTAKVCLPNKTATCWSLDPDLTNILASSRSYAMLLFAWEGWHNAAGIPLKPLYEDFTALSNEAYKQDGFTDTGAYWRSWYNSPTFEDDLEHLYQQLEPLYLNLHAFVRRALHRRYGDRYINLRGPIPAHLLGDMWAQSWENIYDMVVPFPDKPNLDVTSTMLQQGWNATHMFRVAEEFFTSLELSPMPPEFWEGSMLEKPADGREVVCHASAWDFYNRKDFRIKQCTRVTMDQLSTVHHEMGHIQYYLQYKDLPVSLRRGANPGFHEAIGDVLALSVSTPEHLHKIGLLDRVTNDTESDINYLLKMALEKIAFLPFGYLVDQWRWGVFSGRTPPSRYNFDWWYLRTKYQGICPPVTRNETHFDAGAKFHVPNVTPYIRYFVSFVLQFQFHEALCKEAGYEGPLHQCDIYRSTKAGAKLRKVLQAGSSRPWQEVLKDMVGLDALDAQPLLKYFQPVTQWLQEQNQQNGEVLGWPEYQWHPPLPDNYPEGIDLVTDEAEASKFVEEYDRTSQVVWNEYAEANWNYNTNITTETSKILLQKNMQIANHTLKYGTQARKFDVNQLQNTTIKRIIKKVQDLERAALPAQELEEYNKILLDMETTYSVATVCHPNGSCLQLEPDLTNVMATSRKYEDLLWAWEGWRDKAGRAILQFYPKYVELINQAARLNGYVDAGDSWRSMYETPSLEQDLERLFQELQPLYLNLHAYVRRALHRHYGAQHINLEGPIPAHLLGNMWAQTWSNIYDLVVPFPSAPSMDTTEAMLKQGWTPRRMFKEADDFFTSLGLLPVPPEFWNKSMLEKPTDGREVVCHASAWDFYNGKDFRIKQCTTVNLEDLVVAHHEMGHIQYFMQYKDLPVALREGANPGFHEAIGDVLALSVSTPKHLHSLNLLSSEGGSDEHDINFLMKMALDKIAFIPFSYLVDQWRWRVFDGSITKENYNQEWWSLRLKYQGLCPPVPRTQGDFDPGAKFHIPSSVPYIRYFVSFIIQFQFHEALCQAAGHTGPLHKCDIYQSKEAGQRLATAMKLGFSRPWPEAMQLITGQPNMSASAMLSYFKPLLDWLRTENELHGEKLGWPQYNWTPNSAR

SMILES: C[C@H](CS)C(=O)N1CCCC1C(=O)O (stereo in doubt) [SQ14225, D-3-mercapto-2-methylpropanoyl-L-proline]
stability in normal gastric and intestinal environments (ACE [1]): sufficiently stable in the normal gastric and intestinal environments of most patients

IC50 (Human urinary ACE): 2.1 nM
SMILES: C[C@H](CSC(=O)[C@@H](N)CCC(=O)O)C(=O)N1CCC[C@H]1C(=O)O [N^α -[3-(L-α-glutamylthio)-2-D-methyl-propanoyl]-L-proline]

SMILES: C[C@H](CSSC[C@@H](C)C(=O)N1CCC[C@H]1C(=O)O)C(=O)N1CCC[C@H]1C(=O)O [disulfide]
inhibitory activity of disulfide (dimer of SQ14225) (ACE [2]): largely inactive as an inhibitor
